According to paper PMC11428108 (Frontiers in Molecular Neuroscience, 2024):
Where “and” joins values, the source holds several entries; their conditions need not be identical. Identical values can stand only once. Entries after “also recorded” stand apart in the source; their conditions may differ. Like-named read-outs stand apart in the source and are kept apart here.

Experiments:
[1] = test system: human (α3)2(β2)2α3/β2 (α3β2*) nAChRs; assay: FLEXstation membrane potential assay in HEK cells stably expressing α3β2* nAChRs; type: cell-based; details: SR9883 0.0005–10 μM
Text: (§1) Human embryonic kidney (HEK) cell lines stably expressing human (α4)2(β2)2β2/α4 (α4β2*) nAChRs, (α4)2(β2)2α5 nAChRs, (α4)2(β2)2β3 nAChRs, (α3)2(β4)2α3/β4 (α3β4*) nAChRs, (α3)2(β2)2α3/β2 (α3β2*) nAChRs, (α3)2(β4)2α5 nAChRs, or (α3)2(β2)2α5 nAChRs were maintained as described previously ([Wang et al., 2015]; [Kuryatov et al., 2005]; [Caligiuri et al., 2022]). The FLEXstation bench top scanning fluorometer from Molecular Devices was used to assay nAChR function in these cells, according to published protocols ([Wang et al., 2015]; [Kuryatov et al., 2005]). The membrane potential kit (Molecular Devices) was used according to the manufacturer’s protocols. Serial dilutions of SR9883 were manually added to the assay plate 15 min prior to recording. […] Potency and efficacy were calculated using the Hill equation as described previously ([Wang et al., 2015]).
(§2) Concentration-response curves of SR9883 actions in nAChR-expressing HEK cells and oocytes were fitted to the Hill equation using a nonlinear least squares curve fit method and efficacy and potency values were calculated as previously described ([Wang et al., 2015]). […] For the ICSS threshold experiment, percentages of baseline reward threshold scores were calculated by expressing the absolute threshold scores as a percentage of the scores obtained during baseline. […] Response latency data were analyzed in the same manner as the threshold data. […]

[2] = test system: Chrna5^+/+ and Chrna5^−/− mice; assay: Open-field locomotor activity, SR9883 alone or with nicotine; type: in vivo; details: for Cumulative distance traveled during 60 min session: SR9883 5 or 10 mg kg^−1 IP
Description: Locomotor activity was assessed in an open-field apparatus (40 cm × 40 cm; Omnitech Electronics Inc.) under low illumination (~30 radiometric lux). Mice were habituated to the apparatus for 60 min on the day before treatments commenced. On test days, mice received a total of two systemic injections. First, mice were injected intraperitoneally with SR9883 (0, 5, 10 mg kg^−1) and returned to their home cages. […] Mice were then placed in the center of the apparatus and the total distance they traveled was recorded for 60 min (Fusion software, Omnitech Electronics Inc.). Concentration-response curves of SR9883 actions in nAChR-expressing HEK cells and oocytes were fitted to the Hill equation using a nonlinear least squares curve fit method and efficacy and potency values were calculated as previously described ([Wang et al., 2015]). Plasma and brain levels of SR9983 after oral administration were compared using a two-tailed paired t test. […] For the ICSS threshold experiment, percentages of baseline reward threshold scores were calculated by expressing the absolute threshold scores as a percentage of the scores obtained during baseline. The baseline values were the mean thresholds on the three sessions prior to drug injections. Response latency data were analyzed in the same manner as the threshold data. […] Effects of SR9883 on responding for food pellets in rats was analyzed by a two-tailed paired t test. […] Significant main or interaction effects in ANOVAs were followed by Bonferroni or Newman–Keuls post-hoc tests as appropriate. All statistical analyses were performed using GraphPad Prism software with α set to 0.05.

[3] = Brain penetration: plasma and brain levels 120 min after oral dosing; type: in vivo, C57BL/6J mice; details: C57BL/6J, mouse, 20 mg kg^−1 PO
Description: Mice prepared with intravenous catheters and treated with SR9883 via oral (10 mg kg^−1) or intravenous (1 mg kg^−1) routes of administration. Blood samples were collected up to 240 min after treatment into lithium heparin coated tubes (Ram Scientific) and stored on wet ice. Blood samples were later centrifuged for 3 min at 5,000 RPM to separate plasma from red blood cells. Plasma was collected into a fresh tube and stored at −80°C. A separate group of mice was treated with SR9883 (20 mg kg^−1 PO) and killed by cervical dislocation 120 min later. Their brains were collected and stored at −80°C. SR9883 levels were quantified in plasma and brain by mass spectrometry using an ABSciex 5,500 instrument and using multiple reaction monitoring as previously described ([Radnai et al., 2021]). Brain samples were homogenized in saline and then immediately treated with twice the amount (v:v) of acetonitrile to extract the compound. Plasma samples were directly treated with acetonitrile. Samples were filtered through a 0.2 μm filter plate prior to injection onto the LC–MS/MS as previously described ([Radnai et al., 2021]).

male Wistar rats = assay: Intravenous nicotine self-administration (FR5TO20); type: in vivo; details: for Numbers of nicotine infusions earned vs vehicle: nicotine 0.03 mg kg^−1 per infusion
Description: Operant chambers (Med Associates, East Fairfield, VT, United States) were used to assess responding by rats for food pellets and intravenous nicotine infusions. […] All rats were food-restricted to maintain their body weight at approximately 85% that of free-feeding weights. They were then trained to press an active lever for 45 mg food pellets on a fixed ratio 5 time-out 20 s (FR5TO20) schedule of reinforcement. […] Rats responded for food rewards until a reliable responding was achieved, defined as >90 pellets earned per 60 min session across three consecutive sessions. […] Rats were anesthetized using 1–3% isoflurane inhalation in oxygen and catheters were implanted into the left jugular vein. The catheter was passed subcutaneously to a polyethylene assembly mounted on the animals’ back. […] During the time period, responding on the active lever had no scheduled consequence.
Concentration-response curves of SR9883 actions in nAChR-expressing HEK cells and oocytes were fitted to the Hill equation using a nonlinear least squares curve fit method and efficacy and potency values were calculated as previously described ([Wang et al., 2015]). Plasma and brain levels of SR9983 after oral administration were compared using a two-tailed paired t test. […] For the ICSS threshold experiment, percentages of baseline reward threshold scores were calculated by expressing the absolute threshold scores as a percentage of the scores obtained during baseline. The baseline values were the mean thresholds on the three sessions prior to drug injections. Response latency data were analyzed in the same manner as the threshold data. […] Effects of SR9883 on responding for food pellets in rats was analyzed by a two-tailed paired t test. […] Significant main or interaction effects in ANOVAs were followed by Bonferroni or Newman–Keuls post-hoc tests as appropriate. All statistical analyses were performed using GraphPad Prism software with α set to 0.05.

[4] = test system: α4β2*, (α4)2(β2)2α5, and (α4)2(β2)2β3 nAChRs; assay: FLEXstation assay, summary over α4β2* stoichiometries with low-affinity agonist binding sites; type: cell-based, human
Text: as §1, §2

Structure (SMILES): N#Cc1cccc(-n2nnc(-c3cccnc3)n2)c1 [SR9883, 3-(5-(pyridin-3-yl)-2H-tetrazol-2-yl)benzonitrile]
- EC50 (enhancement of response to EC20-30 nicotine) [1]: no effect; also recorded: No enhancement
- Locomotor activity (total distance traveled) vs vehicle ([2]; SR9883 5 mg kg^−1, nicotine-injected Chrna5^+/+ and Chrna5^−/− mice, p = 0.0002): reduced
- Locomotor activity (total distance traveled) vs vehicle ([2]; SR9883 10 mg kg^−1, nicotine-injected Chrna5^+/+ and Chrna5^−/− mice, p = 0.0049): reduced
- Cumulative distance traveled during 60 min session ([2]; nicotine (0.25 mg kg^−1 SC)-injected Chrna5^+/+ mice, Dose x Time p = 0.0047): decreased
- Cumulative distance traveled during 60 min session ([2]; nicotine (0.25 mg kg^−1 SC)-injected Chrna5^−/− mice, Dose x Time p = 0.0946, not significant): tended to be decreased
- Cumulative distance traveled during 60 min session ([2]; saline-injected Chrna5^+/+ mice): unchanged
- Cumulative distance traveled during 60 min session ([2]; saline-injected Chrna5^−/− mice): unchanged
- concentration at 120 min ([3]; brain, read-out: Brain SR9883 level): ~4.5 µM and ~1100 ng/mL
- concentration at 120 min ([3]; plasma, read-out: Plasma SR9883 level): ~2600 ng/mL and ~11 µM
- Numbers of nicotine infusions earned vs vehicle (male Wistar rats; SR9883 5 mg kg^−1 IP, p = 0.0021): decreased
- Numbers of nicotine infusions earned vs vehicle (male Wistar rats; SR9883 10 mg kg^−1 IP, p < 0.0001): decreased
- Responding on the inactive lever (male Wistar rats; SR9883 5 and 10 mg kg^−1 IP, p = 0.1274, not significant): tended to be decreased
- Residual deficits in nicotine responding across daily sessions after treatment (male Wistar rats; baseline sessions prior to each SR9883 treatment): no residual deficits
- Concentration inducing maximal enhancement of nAChR signaling ([4]; EC20-30 nicotine): ~ 3 μM
- EC50 ([4]; enhancement of the effect of nicotine, read-out: EC50 values, range over stoichiometries): 200 to 400 nM
